Experimental data: patent US11739111B2, “Manufacture of trans-[tetrachlorobis(1H-indazole)ruthenate (III)] and compositions thereof” (Bold Therapeutics, Inc., priority 2017, dated 2023)
Several values for one entry are separate records, joined by “and”; a condition that tells them apart may be missing. Equal values may be shown once.

Tests used:
Format in all cases: physicochemical
[1] = Stability of the isolated cesium intermediate as dry powder; conditions: ambient conditions
Source text: Another aspect of the invention is the introduction of step S-2 into the preparation of Formula I-b. Step S-2 involves the preparation of a cesium intermediate, Formula I-a. […] As stated above, indazolium trans-[tetrachlorobis(1H-indazole)ruthenate (III)] is isolated by filtration as what can best be described as a mud-like substance. The stability of this compound is improved by the presence of hydrochloric acid (chloride ions). Washing the filtrate with polar solvents (e.g. methanol) also lead to degradation. Therefore, the best practice is to prepare the indazolium trans-[tetrachlorobis(1H-indazole)ruthenate (III)], isolate by filtration, and use directly for S-2 without delay. S-2 consists of mixing indazolium trans-[tetrachlorobis(1H-indazole)ruthenate (III)] and cesium chloride in a suitable solvent. Suitable solvents can be alcohol with 1 to 5 carbon atoms, a diol with 2-4 carbon atoms, water, ketones with […], cyclic ethers containing 4 to 7 carbon atoms, amides with 1 to 4 carbon atoms, DMSO, sulfolane, esters with 4 to 6 carbon atoms, chlorinated hydrocarbons with 1 or 2 carbon atoms, liquid aromatic hydrocarbons, nitriles with 2-6 carbon atoms, or mixture of thereof.

[2] = Solution stability study of IT-139 bulk solution (HPLC peak area over time); conditions: for % Peak Area Unspecified: impurities; for % Peak Area RRT 1.09 / % Peak Area RRT 1.28: impurity
Experimental: HPLC Method 1 Assay and identity of sodium trans-[tetrachlorobis(1H-indazole) ruthenate (III)] was determined by high pressure liquid chromatography with UV detection at 292 nm. IT-139 drug product was dissolved in water at concentration of 1 mg/mL, and 10 μL was injected onto an Agilent Zorbax SB-C18 (3 μm, 4.6×150 mm) HPLC column. Mobile phase A consisted of 0.1% trifluoroacetic acid in water and mobile phase B consisted of 0.1% trifluoroacetic acid in acetonitrile. Separation was achieved by gradient flow at 1.0 mL/minute such that mobile phase A constituting from 90% to 10% from time zero to 12 minutes, with mobile phase B constituting from 10% to 90% over 12 minutes. The gradient was then reversed from 10% mobile phase A and 90% mobile phase B to 90% A and 10% B from 12 minutes to 13 minutes. This continued until the end of the run at 15 minutes. The analyte retention time was 7.7 minutes. Sample temperature was maintained at 5° C., and column temperature was maintained at 25° C.
HPLC Method 2 Two HPLC methods are used because two different impurities co-elute using HPLC Method 1. Related substances for IT-139 drug product were determined by high pressure liquid chromatography with UV detection at 292 nm. IT-139 drug product was dissolved in water at concentration of 1 mg/mL, and 10 μL was injected onto an Agilent Zorbax SB-C18 (3 μm, 4.6×150 mm) HPLC column. Mobile phase A consisted of 0.1% trifluoroacetic acid in water and mobile phase B consisted of 0.1% trifluoroacetic acid in acetonitrile. Separation was achieved by gradient flow at 1.0 mL/minute such that mobile phase A constituted from 90% to 10% from time zero to 15 minutes, with mobile phase B constituted from 10% to 90% over 15 minutes. The gradient was held at 10% A and 90% B from 15 minutes to 19.9 minutes. The gradient was then reversed to 90% A and 10% B from 19.9 minutes to 20 minutes, and was held until the end of the run at 26 minutes. Sample temperature was maintained at 5° C., and column temperature was maintained at 25° C.
Compound from Example 5 was prepared at room temperature (20° C.) using room temperature solutions, and refrigerated (2-8° C.) using cold (2-8° C.) solutions, for a total volume of 500 mL for each. Citric acid solution was prepared by dissolving 19.2 grams of citric acid in 1 L of water. Sodium citrate solution was prepared by dissolving 29.4 grams of sodium citrate in 1 L of water. Sodium citrate solution was added to the citric acid solution until the pH was increased from 2.0 to 3.4. Mannitol solution was prepared by dissolving 13.3 g in 200 mL of water. Solutions of Formula I-b were prepared by adding 16.6 mL of citrate buffer to 400 mL water. 3.33 g sodium trans[tetrachlorobis(1H-indazole)ruthenate(III)] was added to the solution and stirred for 10 minutes. 50 mL of mannitol solution was added followed by 33.4 mL of water for a final volume of 500 mL IT-139 bulk solution. The room temperature (18-22° C.) sample was stirred using a magnetic stir plate on the laboratory bench, and the refrigerated sample was stirred using a magnetic stir plate in a refrigerator (2-8° C.). Aliquots of 100 μL were taken from each sample immediately upon dissolution (T=0) and at time points of 0.5, 1, 2, 3, 4, 5, 6, 18, 24, 32, and 48 hours. Each sample was added to 1.9 mL methanol in an HPLC vial and mixed by vortex. […] HPLC chromatograms for IT-139 samples stored refrigerated or at room temperature at the 18 hour time point are shown in FIG. 2 and FIG. 3, respectively.

[3] = Stability of Formula I-b in chloride-containing solutions versus pure water (aquation to Compound A); conditions: sodium chloride or hydrochloric acid solutions compared with pure water
[4] = 20° C. (room temperature), 0.5 h
[5] = 20° C. (room temperature), 18 h

## [Cl][Ru-3]([Cl])([Cl])([Cl])([n+]1cc2ccccc2[nH]1)[n+]1cc2ccccc2[nH]1.[Cs+] [Formula I-a, cesium trans-[tetrachlorobis(1H-indazole)ruthenate (III)]]
[1]
  stability of the dry powder: stable at ambient conditions

## [Cl][Ru-]([Cl])([Cl])[Cl].[Na+].c1ccc2[nH]ncc2c1.c1ccc2[nH]ncc2c1 [Formula I-b, sodium trans-[tetrachlorobis(1H-indazole)ruthenate (III)]]
[2]; 4° C. (refrigerated), 0 h
  % Peak Area RT 7.7 min: 97.05% and 97.1%
  % Peak Area Unspecified: <0.1%
  % Peak Area RRT 1.09: 0.96%
  % Peak Area RRT 1.28: 1.91%
[2]; 4° C. (refrigerated), 0.5 h
  % Peak Area RT 7.7 min: 97.3%
  % Peak Area Unspecified: <0.1%
  % Peak Area RRT 1.09: 0.96%
  % Peak Area RRT 1.28: 1.7%
[2]; 4° C. (refrigerated), 1 h
  % Peak Area RT 7.7 min: 97.0%
  % Peak Area Unspecified: <0.1%
  % Peak Area RRT 1.09: 1.03%
  % Peak Area RRT 1.28: 1.9%
[2]; 4° C. (refrigerated), 2 h
  % Peak Area RT 7.7 min: 97.0%
  % Peak Area Unspecified: 0.14%
  % Peak Area RRT 1.09: 1.04%
  % Peak Area RRT 1.28: 1.86%
[2]; 4° C. (refrigerated), 3 h
  % Peak Area RT 7.7 min: 96.8%
  % Peak Area Unspecified: 0.16%
  % Peak Area RRT 1.09: 1.07%
  % Peak Area RRT 1.28: 0.94%
[2]; 4° C. (refrigerated), 4 h
  % Peak Area RT 7.7 min: 96.5%
  % Peak Area Unspecified: 0.26%
  % Peak Area RRT 1.09: 1.13%
  % Peak Area RRT 1.28: 2.14%
[2]; 4° C. (refrigerated), 5 h
  % Peak Area RT 7.7 min: 96.6%
  % Peak Area Unspecified: <0.1%
  % Peak Area RRT 1.09: 1.11%
  % Peak Area RRT 1.28: 2.2%
[2]; 4° C. (refrigerated), 6 h
  % Peak Area RT 7.7 min: 96.8%
  % Peak Area Unspecified: <0.1%
  % Peak Area RRT 1.09: 1.09%
  % Peak Area RRT 1.28: 2.07%
[2]; 4° C. (refrigerated), 18 h
  % Peak Area RT 7.7 min: 95.4%
  % Peak Area Unspecified: 0.11%
  % Peak Area RRT 1.09: 1.45%
  % Peak Area RRT 1.28: 3.07%
[2]; 4° C. (refrigerated), 24 h
  % Peak Area RT 7.7 min: 94.8%
  % Peak Area Unspecified: <0.1%
  % Peak Area RRT 1.09: 1.34%
  % Peak Area RRT 1.28: 3.76%
[2]; 4° C. (refrigerated), 32 h
  % Peak Area RT 7.7 min: 94.9%
  % Peak Area Unspecified: <0.1%
  % Peak Area RRT 1.09: 1.33%
  % Peak Area RRT 1.28: 3.65%
[2]; 4° C. (refrigerated), 48 h
  % Peak Area RT 7.7 min: 89.8%
  % Peak Area Unspecified: <0.1%
  % Peak Area RRT 1.09: 2.39%
  % Peak Area RRT 1.28: 7.56%
[2]; 20° C. (room temperature), 0 h
  % Peak Area RT 7.7 min: 96.8%
  % Peak Area Unspecified: <0.1%
  % Peak Area RRT 1.09: 0.88%
  % Peak Area RRT 1.28: 2.26%
[2]; [4]
  % Peak Area RT 7.7 min: 96.8%
  % Peak Area Unspecified: <0.1%
  % Peak Area RRT 1.09: 1.08%
  % Peak Area RRT 1.28: 2.07%
[2]; 20° C. (room temperature), 1 h
  % Peak Area RT 7.7 min: 96.5%
  % Peak Area Unspecified: <0.1%
  % Peak Area RRT 1.09: 1.14%
  % Peak Area RRT 1.28: 2.28%
[2]; 20° C. (room temperature), 2 h
  % Peak Area RT 7.7 min: 96.3%
  % Peak Area Unspecified: 0.13%
  % Peak Area RRT 1.09: 1.22%
  % Peak Area RRT 1.28: 2.34%
[2]; 20° C. (room temperature), 3 h
  % Peak Area RT 7.7 min: 95.9%
  % Peak Area Unspecified: 0.16%
  % Peak Area RRT 1.09: 1.35%
  % Peak Area RRT 1.28: 2.55%
[2]; 20° C. (room temperature), 4 h
  % Peak Area RT 7.7 min: 95.4%
  % Peak Area Unspecified: 0.25%
  % Peak Area RRT 1.09: 1.47%
  % Peak Area RRT 1.28: 2.89%
[2]; 20° C. (room temperature), 5 h
  % Peak Area RT 7.7 min: 94.9%
  % Peak Area Unspecified: 0.26%
  % Peak Area RRT 1.09: 1.58%
  % Peak Area RRT 1.28: 3.27%
[2]; 20° C. (room temperature), 6 h
  % Peak Area RT 7.7 min: 94.0%
  % Peak Area Unspecified: 0.13%
  % Peak Area RRT 1.09: 1.88%
  % Peak Area RRT 1.28: 4%
[2]; [5]
  % Peak Area RT 7.7 min: 12.1%
  % Peak Area Unspecified: 1.82%
  % Peak Area RRT 1.09: 25.2%
  % Peak Area RRT 1.28: 60.87%
[3]
  stability in solution: much more stable
